In patent US10654834B2 (Venenum Biodesign, LLC, priority 2016, dated 2020):
Structures can show the parent of a compound that is named as a salt.

How the values were obtained:
human TGR5 receptor = biological target: T1, human TGR5 receptor (Homo sapiens, UniProt Q8TDU6); experiment: Human TGR5 cAMP production assay (hTGR5-CHO cells, DiscoveRx cAMP XS+ kit); type: cell-based; details: luminescent cAMP assay, read-out: Human TGR5 Lum. cAMP Activity (EC50)
T1 construct: host or cells: CHO-K1 (hTGR5-CHO)
T1 sequence (Q8TDU6 1-330): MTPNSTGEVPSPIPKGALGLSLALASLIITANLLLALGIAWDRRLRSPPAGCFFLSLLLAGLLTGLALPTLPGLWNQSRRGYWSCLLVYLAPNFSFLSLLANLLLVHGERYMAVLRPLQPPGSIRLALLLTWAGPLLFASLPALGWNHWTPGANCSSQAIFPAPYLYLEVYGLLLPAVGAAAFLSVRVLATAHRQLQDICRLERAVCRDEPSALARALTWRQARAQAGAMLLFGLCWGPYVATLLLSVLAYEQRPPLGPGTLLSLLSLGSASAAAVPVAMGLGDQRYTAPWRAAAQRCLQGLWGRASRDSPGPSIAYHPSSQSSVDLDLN
Summary of the method: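 EC50 values come from luminescent enzyme-complementation cAMP detection, read after overnight incubation. Beforehand, hTGR5-expressing CHO-K1 cells with IBMX and anti-cAMP antibody were exposed 1 h at room temperature to serially diluted (half-log) compounds.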

mouse TGR5 receptor = biological target: T2, mouse TGR5 receptor (Mus musculus, UniProt Q80SS6); experiment: Mouse TGR5 luminescent cAMP production assay (HEK293-EBNA cells, DiscoveRx cAMP XS+ kit); type: cell-based; details: HEK293-EBNA cells overexpressing mouse TGR5, luminescent cAMP assay; read-out: Mouse TGR5 Lum. cAMP Activity (EC50)
T2 construct: host or cells: HEK293-EBNA (293 c18, ATCC CRL10852)
T2 sequence (Q80SS6 1-329): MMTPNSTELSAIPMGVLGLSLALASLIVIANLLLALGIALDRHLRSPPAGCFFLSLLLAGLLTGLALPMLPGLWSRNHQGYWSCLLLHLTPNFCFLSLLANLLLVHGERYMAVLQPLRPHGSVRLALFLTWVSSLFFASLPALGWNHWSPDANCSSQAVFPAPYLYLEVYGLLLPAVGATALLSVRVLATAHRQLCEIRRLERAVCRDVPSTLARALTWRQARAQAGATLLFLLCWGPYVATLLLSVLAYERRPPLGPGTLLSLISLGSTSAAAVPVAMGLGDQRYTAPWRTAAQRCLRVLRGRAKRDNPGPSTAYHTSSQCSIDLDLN
Description: Mouse TGR5 cAMP Production Assay
Compounds of the present invention were evaluated for their ability to induce cAMP production in HEK-EBNA cells overexpressing the mouse TGR5 receptor. Human embryonic kidney cells (HEK293-EBNA) stably expressing mouse TGR5 receptor were established using the following procedure. Specifically, a commercially obtained gene encoding mouse TGR5 (accession number BC116914) from Thermo Scientific (Waltham, Mass.) was cloned into an episomal expression vector. The resulting expression plasmid was then transfected into 293 c18 (ATCC® CRL10852™) cells, which express the Epstein-Barr virus nuclear antigen EBNA1 and can support the replication of episomal vectors. Selection for the plasmid was maintained with Hygromycin B. Cells were cultured and maintained in DMEM (Sigma; cat #6429) supplemented with 10% Fetal Bovine Serum, 1% penicillin/streptomycin, 2 mM L-alanine L-glutamine (GlutaMax), and 250 μg/mL Hygromycin.
We developed two cAMP production assays.
(i) Luminescent cAMP Production Assay
In this first cAMP production assay, the cAMP production was measured using DiscoveRx's cAMP XS+ kit following the manufacturer's recommended protocol. Briefly, HEK293-EBNA cells stably overexpressing mouse TGR5 were harvested using non-enzymatic cell dissociation buffer (Sigma-Aldrich, St. Louis, Mo.), spun down, then resuspended in serum-free DMEM with 500 μM IBMX at a density of 1.25×10^6 cells/mL. 500 μL of cAMP antibody solution was added to 500 μL of cell suspension and incubated at room temperature for 20 min.
Test compounds were serially diluted (half-log dilutions) in DMSO and then further diluted 1:50 in PBS, 10 mM HEPES buffer. 2 μL of serially diluted compound was added to a 384-well low volume plate (Greiner cat #784075) and centrifuged briefly. 2 μl of the cell/cAMP antibody mixture was then added to each compound-containing well and allowed to incubate at room temperature for one (1) hour. Following incubation, the XS+ kits' ED/Lysis/CL Substrate Working Solution was prepared following the manufacturer's recommended protocol and 4 μL was added to each well of the plate. The plate was then incubated for one (1) hour at room temperature. Following incubation, 4 μL of (Enzyme Acceptor) EA reagent was added to the plate and allowed to incubate overnight at room temperature. Luminescent signal was then detected using the Viewlux instrument (PerkinElmer, Waltham, Mass.).
In Table 52, EC50 values for both human and mouse cells were determined according to the TGR5 cAMP assays described above. […]

EC50 (human TGR5 receptor) [nM] | EC50 (mouse TGR5 receptor) [nM] | SMILES
100 to 999 | 100 to 999 | N#Cc1ccc(CCNC(=O)[C@@H]2CCCN2c2cc(-c3ccncc3)nc(C(F)(F)F)n2)cc1 [Compound 141, (S)-N-(4-cyanophenethyl)-1-(6-(pyridin-4-yl)-2-(trifluoromethyl)pyrimidin-4-yl)pyrrolidine-2-carboxamide]
100 to 999 | < 100 | COCC(=O)N1CCN(c2cc(N3CCC[C@@H](C(=O)NCCc4ccc(C(F)(F)F)cc4)C3)nc(C(F)(F)F)n2)CC1 [Compound 337, (R)-1-(6-(4-(2-methoxyacetyl)piperazin-1-yl)-2-(trifluoromethyl)pyrimidin-4-yl)-N-(4-(trifluoromethyl)phenethyl)piperidine-3-carboxamide]
100 to 999 | < 100 | CN1CCC(Oc2cc(N3CCC[C@H]3C(=O)NCCc3ccc(C#N)cc3)nc(C(F)(F)F)n2)CC1 [Compound 39, (S)—N-(4-cyanophenethyl)-1-(6-((1-methylpiperidin-4-yl)oxy)-2-(trifluoromethyl)pyrimidin-4-yl)pyrrolidine-2-carboxamide]
1000 to 30000 | 1000 to 30000 | Cc1noc(C)c1-c1cc(N2CCC[C@H]2C(=O)NCCc2ccc(C#N)cc2)nc(C(F)(F)F)n1 [Compound 156, (S)-N-(4-cyanophenethyl)-1-(6-(3,5-dimethylisoxazol-4-yl)-2-(trifluoromethyl)pyrimidin-4-yl)pyrrolidine-2-carboxamide]
100 to 999 | 100 to 999 | N#Cc1ccc(CCNC(=O)[C@@H]2CCN2c2cc(N3CCC(CN)CC3)nc(C(F)(F)F)n2)cc1 [Compound 245, (S)-(1-(6-(4-aminomethylpiperidin-1-yl)-2-(trifluoromethyl)pyrimidin-4-yl)-N-(4-cyanophenethyl)azetidine-2-carboxamide hydrochloride]
100 to 999 | < 100 | N#Cc1ccc(CCNC(=O)[C@@H]2CCN2c2cc(OC3CCOCC3)nc(C(F)(F)F)n2)cc1 [Compound 242, (S)—N-(4-cyanophenethyl)-1-(6-((tetrahydro-2H-pyran-4-yl)oxy)-2-(trifluoromethyl)pyrimidin-4-yl)azetidine-2-carboxamide]
100 to 999 | < 100 | CC(=O)N(C)CC1CCN(c2cc(N3CCC[C@H]3C(=O)NCCc3ccc(C#N)cc3)nc(C(F)(F)F)n2)CC1 [Compound 54, (S)-N-(4-cyanophenethyl)-1-(6-(4-((N-methylacetamido)methyl)piperidin-1-yl)-2-(trifluoromethyl)pyrimidin-4-yl)pyrrolidine-2-carboxamide]
100 to 999 | 100 to 999 | N#Cc1ccc(CCNC(=O)[C@@H]2CCN2c2cc(-c3ccccn3)nc(C(F)(F)F)n2)cc1 [Compound 306, (S)-N-(4-cyanophenethyl)-1-(6-(pyridin-2-yl)-2-(trifluoromethyl)pyrimidin-4-yl)azetidine-2-carboxamide]
100 to 999 | 100 to 999 | O=C(NCCc1ccc(C(F)(F)F)cc1)[C@@H]1CCCN(c2cc(OC3CCOCC3)nc(C(F)(F)F)n2)C1 [Compound 335, (R)-1-(6-((tetrahydro-2H-pyran-4-yl)oxy)-2-(trifluoromethyl)pyrimidin-4-yl)-N-(4-(trifluoromethyl)-phenethyl)piperidine-3-carboxamide]
100 to 999 | 100 to 999 | CNCC1CCN(c2cc(N3CCC[C@H]3C(=O)NCCc3ccc(C#N)cc3)nc(C(F)(F)F)n2)CC1 [Compound 49]
1000 to 30000 | 1000 to 30000 | CNC(=O)c1cc(-c2cc(N3CCC[C@H]3C(=O)NCCc3ccc(C#N)cc3)nc(C(F)(F)F)n2)cs1 [Compound 179, (S)—N-(4-cyanophenethyl)-1-(6-(5-(methylcarbamoyl)thiophen-3-yl)-2-(trifluoromethyl)pyrimidin-4-yl)pyrrolidine-2-carboxamide]
100 to 999 | 100 to 999 | N#Cc1ccc(CCNC(=O)[C@@H]2CCCN2c2cc(Oc3ccccc3)nc(C(F)(F)F)n2)cc1 [Compound 43, (S)-N-(4-cyanophenethyl)-1-(6-phenoxy-2-(trifluoromethyl)pyrimidin-4-yl)pyrrolidine-2-carboxamide]
1000 to 30000 | < 100 | N#Cc1ccc(CCNC(=O)[C@@H]2CCCN2c2cc(-c3csc(C(=O)O)c3)nc(C(F)(F)F)n2)cc1 [Compound 178, (S)-4-(6-(2-((4-cyanophenethyl)carbamoyl)pyrrolidin-1-yl)-2-(trifluoromethyl)pyrimidin-4-yl)thiophene-2-carboxylic acid]
100 to 999 | < 100 | CN(C)CC1CCN(c2cc(N3CC[C@H]3C(=O)NCCc3ccc(C#N)cc3)nc(C(F)(F)F)n2)CC1 [Compound 221, (S)-N-(4-cyanophenethyl)-1-(6-(4-((dimethylamino)methyl)piperidin-1-yl)-2-(trifluoromethyl)pyrimidin-4-yl)azetidine-2-carboxamide]
1000 to 30000 | 100 to 999 | N#Cc1ccc(CCNC(=O)[C@@H]2CCCN2c2cc(-c3cccnc3)nc(C(F)(F)F)n2)cc1 [Compound 142, (S)-N-(4-cyanophenethyl)-1-(6-(pyridin-3-yl)-2-(trifluoromethyl)pyrimidin-4-yl)pyrrolidine-2-carboxamide]
100 to 999 | 100 to 999 | N#Cc1ccc(CCNC(=O)[C@@H]2CCCN2c2cc(-c3cccs3)nc(C(F)(F)F)n2)cc1 [Compound 165, (S)-N-(4-cyanophenthyl)-1-(6-(thiophene-2-yl)-2-(trifluoromethyl)pyrimidin-4-yl)pyrrolidine-2-carboxamide]
100 to 999 | 100 to 999 | N#Cc1ccc(CCNC(=O)[C@@H]2CCCN2c2cc(-c3ccccc3)nc(C(F)(F)F)n2)cc1 [Compound 144, (S)-N-(4-cyanophenethyl)-1-(6-phenyl-2-(trifluoromethyl)pyrimidin-4-yl)pyrrolidine-2-carboxamide]
100 to 999 | 1000 to 30000 | CN(C)c1cc(N2CCC[C@@H](C(=O)NCCc3ccc(C(F)(F)F)cc3)C2)nc(C(F)(F)F)n1 [Compound 322, (R)-1-(6-(dimethylamino)-2-(trifluoromethyl)pyrimidin-4-yl)-N-(4-(trifluoromethyl)phenethyl)piperidine-3-carboxamide]
100 to 999 | 100 to 999 | N#Cc1ccc(CCNC(=O)[C@@H]2CCCN2c2cc(-c3ccc(C(F)(F)F)cc3)nc(C(F)(F)F)n2)cc1 [Compound 147, (S)-N-(4-cyanophenethyl)-1-(2-(trifluoromethyl)-6-(4-(trifluoromethyl)phenyl)pyrimidin-4-yl)pyrrolidine-2-carboxamide]
1000 to 30000 | < 100 | COc1cc(-c2cc(N3CCC[C@H]3C(=O)NCCc3ccc(C#N)cc3)nc(C(F)(F)F)n2)c(Cl)cn1 [Compound 161, (S)-1-(6-(5-chloro-2-methoxy-pyridin-4-yl)-2-(trifluoromethyl)pyrimidin-4-yl)-N-(4-cyanophenethyl)pyrrolidine-2-carboxamide]
100 to 999 | < 100 | N#Cc1ccc(CCNC(=O)[C@@H]2CCCN2c2cc(-c3ccsc3)nc(C(F)(F)F)n2)cc1 [Compound 158, (S)-N-(4-cyanophenethyl)-1-(6-(thiophen-3-yl)-2-(trifluoromethyl)pyrimidin-4-yl)pyrrolidine-2-carboxamide]
